Data set [1] concerns 4T1 cells. Put plainly: Secondary (orthotopic) 4T1 challenge after 1V270 therapy. It is filed as in vivo, BALB/c mice. An excerpt: FIGS. 24A-24G. Tumor infiltrating T cells in 1V270 treated mice show high clonalities and increased frequency of intra- and inter-individual common clones (A) Experimental protocols of the secondary challenge studies. Two groups of BALB/c mice (n=5/group) were i.p, treated with 1V270. One cohort of mice was i.v. injected with 4T1-GLF cells (2×10^4) on day 0 and tumor growth in the lungs was monitored by IVIS on day 20. […] Native BALB/c mice served as controls. 4T1 cells were orthotopically inoculated on day 21. (B) Tumor growth was measured with a caliper and calculated using the formula: volume (mm3)=(width)2×length/2. (C) TILs s were isolated from the secondarily challenged tumor on day 39 and stained for CD8^+ T cells (CD3^+CD8^+) and PD-1. The numbers of tumor-infiltrating cos• T cells were expressed per tumor volume (mm^3). Data are representative of 2 independent experiments showing similar results. Results were analyzed by the Mann-Whitney U test comparing the 1V270 treatment groups against the vehicle treated group. **P<0.01. (D·G) TCR repertoire of CD8^+ T cells from TILs s and splenocytes were examined. (D) The clonality index (1-normalized Shannon index) of CD8^+ T cells infiltrating to the left side of the secondarily challenged tumor was plotted against tumor volume in the tumor exposed mice. Correlation between the clonality index and the tumor volume was evaluated by Pearson's method (R^2=0.97, p<0.05).
FIGS. 26A-26D. Intranasally administered 1V270 inhibits pulmonary colonization in experimental metastasis models (A) Protocol for testing the therapeutic efficacy of i.n. treatment with 1V270 in IV metastasis model. BALB/c mice (n=6-8/group) were i.n. administered with 1V270 (20 or 200 μg) or vehicle on days −3, −1, 3, 7, and 10. 4T1 cells were v. injected on day 0. (B) The numbers of lung nodules were counted on Day 21. *P<0.05 calculated by Kruskal-Wallis test with Dunn's post hoc test. (C) Intranasal 1V270 therapy attenuated the growth of secondarily challenged tumors. BALB/c mice (n=S) were i.n. treated with 200 μg 1V270 on days −3, −1, 3, 7 and 10. 4T1 cells were injected on day 0. On day 21, the surviving mice were orthotopically inoculated with 4T1 cells and tumor growth was monitored. The mice treated with 1V270 without i.v. tumor cell injection served as controls. (D) TILs were isolated from the secondarily challenged tumor, and the numbers of CD8^+ T cells and PD-1 expressing CD8^+ T cells were analyzed by flow cytometric assay. Data were analyzed by the Mann-Whitney U test comparing two groups. *P<0.05. Data are representative of 2 independent experiments showing similar results.
In the spontaneous metastasis model, othotopically implanted tumor cells spontaneously form lung metastases within three weeks after implantation. 5×10^5 4T1 cells were inoculated in both sides of the 4th mammary pads of female BALB/c mice. Tumor length and width were recorded, and tumor volumes were calculated using the formula: volume (mm^3)=(width)^2×length/2. On day 28, mice were euthanized and the lungs were stained with intratracheally injected India ink and destained in Fekete's solution to count tumor nodules. In the experimental metastasis model, 2×10^4 4T1 cells were i.v. injected. On day 21, mice were euthanized and tumor nodules in lungs were counted as described above. In the secondary challenge experiment, 1V270 treated-mice without tumor signals in the lungs on day 21 of the experimental metastasis protocol were included. 5×10^5 4T1 cells were inoculated in both sides of the 4th mammary p ads. Tumor length and width were recorded, and tumor volumes were calculated similar with
To validate that 1V270 therapy induced tumor-specific adaptive immune responses, we monitored the growth of secondarily challenged tumors following prior 1V270 treatment. The mice treated with 1V270 using the IV metastasis protocol were orthotopically re-challenged with 4T1 cells on day 21 (FIG. 24A). […]

The test system of data set [2] is primary tumor. The following applies: cited from earlier work.
Setting [3] is: intranasal 1V270, tumor-exposed vs no tumor exposure or naive.

For the molecule `CCCCCCCCC=CCCCCCCCC(=O)OCC(COP(=O)(O)OCCNC(=O)c1ccc(Cn2c(=O)[nH]c3c(N)nc(OCCOC)nc32)cc1)OC(=O)CCCCCCCC=CCCCCCCCC` (stereo not drawn) [1V270], the “numbers of CD8+ T cells in TILs” value in data set [1] (1V270-treated tumor-exposed vs 1V270-treated no-tumor exposed mice) was “Three-fold higher”. In addition, the “growth of secondarily challenged tumor” value in data set [1] (i.p. 1V270-treated and tumor-exposed mice vs naive or no-tumor exposed mice) is reported as “significantly impaired”. Moreover, in data set [1] (i.p. 1V270-treated no-tumor exposed mice vs naive mice), the “growth of secondarily challenged tumor” value is “no difference in the tumor growth”. For the same molecule, the re-challenged tumor growth entry in data set [1] (intranasal 1V270, tumor-exposed mice) is given as “significantly inhibited”. Also, in data set [1] (setting [3]), the “number of CD8+ T cells in TILs” value is given as “A higher number” and the “number of PD-1+CD8+ T cells in TILs” value is given as “A higher number”. Also, the “CD8+ T cells in TILs positive for PD-1” value in data set [1] (secondarily challenged tumor) is reported as “more than 80%”. The primary tumor growth result in data set [2] (intratumoral administration) is “inhibits primary tumor growth”. Moreover, the systemic cytokine induction result in data set [2] (local (intratumoral) treatment) was “without causing systemic cytokine induction”.

The values are drawn from US20200087625A1, “METHODS FOR ISOLATING, EXPANDING AND ADMINISTERING CANCER SPECIFIC CD8+ T CELLS” (priority 2017, published 2020).
